Read-outs that look alike come from different tables or passages of the source.
Legend:
[1] = molecular target: T1, HIF PHD-2 (Homo sapiens, UniProt Q9GZT9); test: Inhibitory effect on HIF PHD-2 (HIF-1α peptide hydroxylation, HPLC); assay type: biochemical; conditions: PHD2 enzyme, 30° C., 2 hours, read-out: IC50 against HIF PHD-2
T1 construct: purchased Active Motif
Method: Stock solutions of the following reagents were prepared: HEPES buffer (pH 7.4, 50 mM), HIF-1α peptide (sequence: DLDLEMLAPYIPMDDDFQL; Genscript) solution in DMSO/HEPES (0.5 mM; preparation method: first prepare a 20 mM solution of this peptide in DMSO, then dilute it 40-fold with the HEPES buffer), ascorbic acid solution (10 mM), FeSO4 in hydrochloric acid solution (0.1 mM FeSO4, 10 μM HCl), 2-oxoglutaric acid solution (2-OG: 1 mM), EDTA solution (pH 8.0; 0.5 M), and eight concentrations of Comp-1/DMSO solutions (concentrations: 4000 μM, 1333 μM, 444.4 μM, 148.1 μM, 49.4 μM, 16.5 μM, 5.5 μM, and 1.82 μM). The following reagents were added to nine Eppendorf tubes: 50 μL HEPES solution, 10 μL ascorbic acid solution, 10 μL FeSO4 in HCl solution, 10 μL 2-OG solution, 10 μL HIF-1α peptide solution; then 5 μL of each of the eight Comp-1/DMSO solutions and 5 μL of DMSO were added separately; finally, 5 μL of PHD2 enzyme (Active Motif; concentration: 0.2 μg/μL) was added to each tube. Each of the resulting reaction systems was incubated at 30° C. in dark for 2 hours. Finally, 10 μL of EDTA solution was added to each tube to terminate the reaction. […] The concentrations of HIF-peptide and hydroxylated peptide were quantified using a UV absorption detector to calculate their ratio. The IC50 was calculated using GraphPad Prism 6.0 software.

[2] = Phase 1 single-dose and multiple-dose pharmacokinetics in healthy volunteers; assay type: in vivo, Humans; conditions: for half-life / Tmax: human, oral; for Tmax: read-out: median Tmax
Method: In a Phase 1, randomized, double-blind, placebo-controlled, single-dose and multiple-dose clinical study, a total of 46 healthy volunteers were assigned to one of six dose groups (1 mg, 4 mg, 10 mg, 20 mg, 30 mg, 50 mg) in a single-dose phase. In each dose group, 2 volunteers received a matching placebo. In the 1 mg dose group, 4 volunteers received a single dose of Comp-1 and in the remaining dose groups, 6 volunteers each received a single dose of Comp-1. Blood samples were collected from volunteers within 1 hour before dosing and at 0.5, 1, 1.5, 2, 3, 4, 5, 6, 7, 8, 10, 12, 24, 48, and 72 hours after dosing for pharmacokinetic (PK) analysis.
A total of 32 healthy volunteers were assigned to one of four dose groups (4 mg, 10 mg, 20 mg, 30 mg) in a multiple-dose phase. In each dose group, 2 volunteers received a matching placebo and 6 volunteers received Comp-1 once daily for 10 consecutive days. Blood samples for PK analysis were collected from volunteers within 1 hour before dosing and at 0.5, 1, 1.5, 2, 3, 4, 5, 6, 7, 8, 10, 12, and 24 hours after dosing on the first dosing day (i.e., Day 1), as well as within 1 hour before dosing and at 0.5, 1, 2, 3, 4, 5, 6, 7, 8, 10, 12, 24, 48, and 72 hours after dosing on Days 6, 7, 8, and 10.

[3] = Elimination half-life in rats after single oral gavage; assay type: in vivo; conditions: SD, rat, plasma
Method: Preparation of Single-Dose Oral Formulation: 25.3800 g of meglumine (Sigma) was weighed and dissolved in 80 mL of deionized water. The resulting mixture was stirred for 35 minutes and the volume was made up to 130 mL to obtain a 1M meglumine solution. 4.31 mg, 13.54 mg, and 40.59 mg of Comp-1 were weighed separately and then added to 28.676 mL, 27 mL, and 27 mL of the 1M meglumine solution respectively. The resulting mixtures each was stirred for 31 minutes and sonicated for 5 minutes to obtain colorless transparent solutions with Comp-1 concentrations of 0.15 mg/mL, 0.5 mg/mL, and 1.5 mg/mL, respectively.
18 SD rats (half male, half female) were randomly divided into 3 groups (3 males and 3 females per group). Comp-1 was administered by oral gavage at doses of 1.5, 5.0, and 15.0 mg/kg. Blood samples were collected before administration and at 0.25, 0.5, 1, 2, 4, 6, 8, 24, 48, and 72 hours after administration. The oral vehicle was a 1 M meglumine solution in deionized water, and the administration volume was 10 mL/kg for all doses. All collected plasma samples were stored at −75±15° C. until analysis. The concentration of Comp-1 in SD rat plasma was determined using liquid chromatography-tandem mass spectrometry with Tolbutamide as an internal standard. The mass spectrometer utilized an electrospray ionization source operating in positive ion mode. The precursor-to-product ion transitions monitored were m/z 381.2→306.3 for Comp-1 and m/z 270.9->155.0 for Tolbutamide. Pharmacokinetic parameters of Comp-1 were calculated by software Phoenix™ WinNonlin version 6.1 using a non-compartmental model. Pharmacokinetic data were calculated using a linear log trapezoidal method with a weighting of 1/Y*Y. Samples with concentrations below the lower limit of quantification were not included in the calculation of pharmacokinetic parameters. Microsoft Excel 2010 was used to calculate the mean values of various parameters, with the mean determined from the pharmacokinetic parameters of each animal. The mean elimination half-lives of Comp-1 in male rats at the doses of 1.5, 5.0, and 15.0 mg/kg were: 6.72 hours, 15.0 hours, and 10.2 hours, respectively. The mean elimination half-lives of Comp-1 in female rats at the doses of 1.5, 5.0, and 15.0 mg/kg were: 12.9 hours, 5.72 hours, and 24.9 hours, respectively.

[4] = after 10 consecutive days of dosing
[5] = multiple-dose phase, after the first dose

T1 sequence (Q9GZT9 whole entry): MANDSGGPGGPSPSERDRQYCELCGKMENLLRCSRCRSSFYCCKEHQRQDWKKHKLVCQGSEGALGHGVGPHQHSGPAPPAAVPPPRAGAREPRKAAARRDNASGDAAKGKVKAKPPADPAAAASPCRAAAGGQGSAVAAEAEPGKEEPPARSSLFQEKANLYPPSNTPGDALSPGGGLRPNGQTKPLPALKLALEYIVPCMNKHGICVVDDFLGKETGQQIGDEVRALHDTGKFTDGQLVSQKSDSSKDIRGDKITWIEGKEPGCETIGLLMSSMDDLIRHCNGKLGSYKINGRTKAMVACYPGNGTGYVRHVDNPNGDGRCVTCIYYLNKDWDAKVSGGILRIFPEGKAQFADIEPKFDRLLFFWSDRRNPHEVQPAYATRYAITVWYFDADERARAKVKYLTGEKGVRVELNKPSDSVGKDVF

## O=C(O)CNC(=O)C1=C(O)C2(CCCC2)n2c(ccc2-c2ccccc2)C1=O [Comp-1, (6′-hydroxy-8′-oxo-3′-phenyl-8′H-spiro[cyclopentane-1,5′-indolizine]-7′-carbonyl)glycine]
[1]
  IC50: 2360 nM
[2]; [4]
  exposure (Css,max, AUC0-t, AUC0-t, and AUC0-inf): increased in a dose-proportional manner
  mean clearance (CL/F): no dose-related trend
[2]; blood, after 10 consecutive days of once daily dosing, 4-30 mg, read-out: mean elimination half-life
  half-life: 12.4 to 15.8 h
[2]; blood, after 10 consecutive days of once daily dosing, 4-30 mg
  Tmax: 3 to 4 h
[2]; blood, multiple-dose phase, first dose on Day 1, 4-30 mg, read-out: mean half-life
  half-life: 10.1 to 19.4 h
[2]; blood, multiple-dose phase, first dose on Day 1, 4-30 mg
  Tmax: 2 to 3 h
[2]; in vivo, single-dose phase, 1-50 mg, healthy volunteers, read-out: mean elimination half-life (t½)
  half-life: 13.1 to 19.7 h
[2]; in vivo, single-dose phase, 1-50 mg, healthy volunteers
  Tmax: 3 to 4.5 h
[2]; [5]
  CLF: no apparent trend with dose
  exposure (Cmax, AUC0-t, and AUC0-inf): increased with dose
[2]; single-dose phase
  exposure (Cmax, AUC0-t, and AUC0-inf): increased in a dose-proportional manner
  mean clearance (CL/F): no dose-related trend
[3]; female rats, 1.5 mg/kg oral gavage
  half-life: 12.9 h
[3]; female rats, 5.0 mg/kg oral gavage
  half-life: 5.72 h
[3]; female rats, 15.0 mg/kg oral gavage
  half-life: 24.9 h
[3]; male rats, 1.5 mg/kg oral gavage
  half-life: 6.72 h
[3]; male rats, 5.0 mg/kg oral gavage
  half-life: 15 h
[3]; male rats, 15.0 mg/kg oral gavage
  half-life: 10.2 h

Reference: patent publication US20260199305A1, “LONG-ACTING ORAL PHARMACEUTICAL COMPRISING HYPOXIA-INDUCIBLE FACTOR PROLYL HYDROLASE INHIBITOR AND USE THEREOF” (Kind Pharmaceutical, priority 2023, published 2026)
